# Target: T1, Human CB1 receptor (Homo sapiens, UniProt P21554)
# T1 construct: host or cells: CHO (hCB1/CHO), membrane fraction
# Test: Human CB1 receptor binding assay ([3H]-CP55940, hCB1/CHO membrane fraction)
# Conditions: Experiment 1; inhibition of [3H]-CP55940 binding to hCB1/CHO membranes
# Description: [Human CB1 Receptor Binding Assay]
# (1) Preparation of Human CB1 Receptor (Membrane Fraction):
# Human CB1-expressing cell line: hCB1/CHO (#ES-110-C, Euroscreen)
# Buffer A: 50 mM tris-HCl (pH 7.5) containing ethylenediaminetetraacetic acid (2.5 mM), MgCl2 (5 mM) and sucrose (200 mM)
# Method) The receptor-expressing cells cultivated in the above medium were washed with phosphate buffer (×2 times) and thereto was added Buffer A (2 mL) under ice-cooling or 4° C. (the following procedures were also carried out at the same temperature). The cells were collected by using a cell-scraper, treated by a microtip-type ultrasonicator for 20 seconds (pulse-on: 2 sec, pulse-off: 1 sec) and centrifuged (500×g, 15 min). The supernatant was separated and centrifuged (43000×g, 60 min). The resultant pellet was suspended in Buffer A and homogenized with a potter-type homogenizer. To the homogenate was added an equal volume of 80% glycerol and stored at −80° C.
# (2) Procedure of CB1 Receptor Binding Assay:
# Buffer B: 50 mM tris-HCl (pH 7.5) containing ethylenediaminetetraacetic acid (2.5 mM), MgCl2 (5 mM) and bovine serum albumine (2 mg/mL, fatty acid-free, SIGMA-A7030)
# Buffer C: 50 mM tris-HCl (pH 7.5) containing ethylenediaminetetraacetic acid (2.5 mM), MgCl2 (5 mM) and bovine serum albumine (2 mg/mL, SIGMA-A7906)
# Coating solution: 0.3% ethyleneimine polymer
# Radioligand: [^3H]-CP55940 (30 nM, 7992 dpm/μL, PerkinElmer, #NET-1051) prepared by diluting 8.3 μM solution of the radioligand with Buffer B
# Method) Each well of the assay plate (96-well, Corning Costar Code#3371) was filled with Buffer B (140 μL), a solution of each test compound in dimethylsulfoxide (20 μL, […]), radioligand (20 μL) and membrane preparation (20 μL, 0.5 to 8.0 μg/20 μL) and the mixture was incubated at room temperature for 90 minutes to proceed the binding reaction. The reaction mixture was filtered through Unifilter GF/B (Packard#6005177) presoaked with the above coating solution to collect the membrane fraction. The plate was washed with Buffer C (200 μL×10 times) and dried at 50° C. for 1 hour and Microscinti 40 (40 μL/well) was added to each well. The bound radiolabel was quantitated by a scintilation counter (Top Count NXT, Packard). IC50 value of each test compound against the radioligand-binding to CB1 receptors was calculated on the basis of the quantitated radiolabel activity by using Microsoft Excel 2000 (Microsoft).
# (§1) a) Human CB1 receptor-binding assay: The binding assay was conducted in the same manner as described in Experiment 1.
# T1 sequence (P21554 whole entry): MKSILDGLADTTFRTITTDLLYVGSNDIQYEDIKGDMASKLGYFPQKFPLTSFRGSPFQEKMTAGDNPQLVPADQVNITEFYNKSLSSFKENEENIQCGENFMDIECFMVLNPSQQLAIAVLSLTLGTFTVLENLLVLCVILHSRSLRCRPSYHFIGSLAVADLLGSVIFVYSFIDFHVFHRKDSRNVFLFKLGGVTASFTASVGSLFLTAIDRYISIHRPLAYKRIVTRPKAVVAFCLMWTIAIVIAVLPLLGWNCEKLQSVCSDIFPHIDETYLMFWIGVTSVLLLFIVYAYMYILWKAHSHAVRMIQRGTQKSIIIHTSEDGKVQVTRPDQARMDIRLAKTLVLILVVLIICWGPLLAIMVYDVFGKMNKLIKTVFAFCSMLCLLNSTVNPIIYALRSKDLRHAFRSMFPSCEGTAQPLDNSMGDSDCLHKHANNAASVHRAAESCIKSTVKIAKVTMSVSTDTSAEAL
row,Compound,IC50 [nM]
1,"CNC(=O)C1(NC(=O)c2cnn3c(-c4ccc(Cl)cc4)c(-c4ccccc4Cl)cnc23)CCCCC1 [Example A5, 6-(2-chlorophenyl)-7-(4-chlorophenyl)-3-[N-[1-(N-methylcarbamoyl)cyclohexyl]-carbamoyl]pyrazolo[1,5-a]pyrimidine]",10 to 100
2,CC1(NC(=O)c2cnn3c(-c4ccc(Cl)cc4)c(-c4ccccc4Cl)cnc23)CCCCC1 [Example A10],10 to 100
3,Cc1nn2c(-c3ccc(C(F)(F)F)cc3)c(-c3ccccc3Cl)cnc2c1C(=O)NC1(C#N)CCCCC1 [Example A13],10 to 100
4,CC(NC(=O)c1cnn2c(-c3ccc(Cl)cc3F)c(-c3ccccc3Cl)cnc12)c1ccccn1 (centres unmarked) [Example A15],10 to 100
5,CNS(=O)(=O)c1nn2c(-c3ccc(Cl)cc3)c(-c3ccccc3Cl)cnc2c1C(=O)N[C@@H]1CCS(=O)(=O)C1 [Example B6],10 to 100
6,CN(NC(=O)c1c(S(=O)(=O)N(C)C)nn2c(-c3ccc(Cl)cc3)c(-c3ccccc3Cl)cnc12)c1ccccn1 [Example B12],10 to 100
7,NS(=O)(=O)c1nn2c(-c3ccc(Cl)cc3)c(-c3ccccc3Cl)cnc2c1C(=O)NN1CCCC1 [Example B14],< 10
8,CN(NC(=O)c1c(S(N)(=O)=O)nn2c(-c3ccc(Cl)cc3)c(-c3ccccc3Cl)cnc12)c1ccccn1 [Example B15],< 10
9,N#Cc1ccccc1-c1cnc2c(C(=O)NC3CCCC3)c(S(N)(=O)=O)nn2c1-c1ccc(Cl)cc1 [Example B23],< 10
10,NC(=O)CNS(=O)(=O)c1nn2c(-c3ccc(Cl)cc3)c(-c3ccccc3Cl)cnc2c1C(=O)NC1CCCC1 [Example B26],10 to 100
11,"NC(=O)C1(NC(=O)c2c(S(N)(=O)=O)nn3c(-c4ccc(Cl)cc4)c(-c4ccccc4Cl)cnc23)CCCCC1 [Example B30, 3-[N-(1-carbamoylcyclohexyl)carbamoyl]-6-(2-chlorophenyl)-7-(4-chlorophenyl)-2-sulfamoylpyrazolo[1,5-a]pyrimidine]",10 to 100

# Same assay, conditions: Experiment 2; same method as Experiment 1
row,Compound,IC50 [nM]
1,"NC(=O)C1(NC(=O)c2cnn3c(-c4ccc(Cl)cc4)c(-c4ccccc4Cl)cnc23)CCS(=O)(=O)CC1 [Example A3, 3-[N-(4-carbamoyl-1,1-dioxo-tetrahydrothiopyran-4-yl)carbamoyl]-6-(2-chlorophenyl)-7-(4-chlorophenyl)pyrazolo[1,5-a]pyrimidine]",10 to 100
2,CC1(NC(=O)c2c(OCCO)nn3c(-c4ccc(Cl)cc4)c(-c4ccccc4Cl)cnc23)CCS(=O)(=O)C1 (centres unmarked) [Example A140],< 10
3,N#Cc1ccccc1-c1cnc2c(C(=O)NC3(C(N)=O)CCS(=O)(=O)CC3)cnn2c1-c1ccc(C(F)(F)F)cc1 [Example A146],10 to 100
4,Cc1nn2c(-c3ccc(Cl)cc3)c(-c3ccccc3Cl)cnc2c1C(=O)NC1(C(N)=O)CCS(=O)(=O)CC1 [Example A175],10 to 100
5,"CC1(NC(=O)c2c(CO)nn3c(-c4ccc(C(F)(F)F)cc4)c(-c4ccccc4Cl)cnc23)CCS(=O)(=O)CC1 [Example B32, 6-(2-chlorophenyl)-7-(4-trifluoromethylphenyl)-2-hydroxymethyl-3-[N-(4-methyl-1,1-dioxotetrahydrothiopyran-4-yl)-carbamoyl]pyrazolo[1,5-a]pyrimidine]",< 10
6,CNC(=O)c1nn2c(-c3ccc(C(F)(F)F)cc3)c(-c3ccccc3Cl)cnc2c1C(=O)NC1(C)CCS(=O)(=O)CC1 [Example B36],< 10
7,CC1(NC(=O)c2c(S(N)(=O)=O)nn3c(-c4ccc(Cl)cc4)c(-c4ccccc4Cl)cnc23)CC1 [Example B74],< 10
8,CN(C)NC(=O)c1c(S(N)(=O)=O)nn2c(-c3ccc(C(F)F)cc3)c(-c3ccccc3Cl)cnc12 [Example B84],10 to 100

# Target: T2, Human CB2 receptor (Homo sapiens, UniProt P34972)
# T2 construct: expressed in transfected cells; host or cells: CHO (hCB2/CHO), membrane fraction
# Test: Human CB2 receptor-binding assay (hCB2/CHO) for selectivity to CB1 receptors
# Conditions: ratio of IC50 value for CB2/IC50 value for CB1
# Description: (1) Materials and Methods
# as §1
# b) Human CB2 receptor-binding assay: The binding assay was conducted in the same manner as described in Experiment 1, except that human CB2-expressing CHO cell line (hCB2/CHO) was used instead of hCB1 cell line. IC50 value of each test compound against the radioligand-binding to CB2 receptors was calculated in the manner as described in Experiment 1. Besides, selectivity to CB1 receptors was evaluated in terms of the ratio of IC50 value for CB2/IC50 value for CB1.
# T2 sequence (P34972 whole entry): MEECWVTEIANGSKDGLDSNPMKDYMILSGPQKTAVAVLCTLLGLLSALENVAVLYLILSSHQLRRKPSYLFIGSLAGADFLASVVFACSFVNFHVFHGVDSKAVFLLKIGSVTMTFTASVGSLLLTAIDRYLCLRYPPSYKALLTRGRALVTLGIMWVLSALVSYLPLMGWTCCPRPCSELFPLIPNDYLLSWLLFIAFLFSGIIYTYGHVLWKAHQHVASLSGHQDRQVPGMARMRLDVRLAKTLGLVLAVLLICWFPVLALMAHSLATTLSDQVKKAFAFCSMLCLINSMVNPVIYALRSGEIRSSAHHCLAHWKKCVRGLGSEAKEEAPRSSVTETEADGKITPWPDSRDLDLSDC
row,Compound,Selectivity
1,"NC(=O)C1(NC(=O)c2cnn3c(-c4ccc(Cl)cc4)c(-c4ccccc4Cl)cnc23)CCS(=O)(=O)CC1 [Example A3, 3-[N-(4-carbamoyl-1,1-dioxo-tetrahydrothiopyran-4-yl)carbamoyl]-6-(2-chlorophenyl)-7-(4-chlorophenyl)pyrazolo[1,5-a]pyrimidine]",>500
